Read-outs that look alike come from different tables or passages of the source.
What was measured:
[1] = molecular target: PrPc and PrPsc (Homo sapiens, UniProt P04156)
[2] = molecular target: T1, PrPc (Homo sapiens, UniProt P04156)
[3] = test system: PrPc and PrPsc
[4] = molecular target: PrPc (Mesocricetus auratus, UniProt P04273)
[5] = molecular target: T1, PrPc; remark: listed apart in the source
[6] = test system: PrPres
[7] = Fast Red staining with 3F4, red/pink beads indicate bound native PrPc or antibody, scrapie-infected hamster brain homogenate

Chain of PrPc (Mesocricetus auratus, UniProt P04273) (P04273 23-254 limits assumed): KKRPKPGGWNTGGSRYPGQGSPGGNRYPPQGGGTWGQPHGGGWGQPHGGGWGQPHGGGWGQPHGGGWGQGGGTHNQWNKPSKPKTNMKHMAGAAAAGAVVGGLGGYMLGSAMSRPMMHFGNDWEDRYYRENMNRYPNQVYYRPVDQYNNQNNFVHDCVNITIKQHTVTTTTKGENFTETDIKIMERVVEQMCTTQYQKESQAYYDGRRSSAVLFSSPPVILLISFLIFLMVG

Row | Substance | Intensity of Chemiluminescent Signal after Denaturing [3] | Bead Color [4] | further results
1 | DVR | Strong | White | Isoform binding preference concluded from first and second support signals [1]: preferentially binds PrPsc; Signal on the second support following denaturation and transfer [1]: strong; Bead colour under the microscope following on-bead detection [2]: white; Signal on the first support [5]: weak
2 | EHATYRA | Strong | White | 
3 | EWWETV | Medium | White | 
4 | FPK |  |  | Beads identified as PrPsc-specific binders (film 2 signal from PrPres after PK) [6]: specific for PrPsc
5 | FQGTREA | Strong | White | 
6 | HWK |  |  | Beads identified as PrPsc-specific binders (film 2 signal from PrPres after PK) [6]: specific for PrPsc
7 | KWATRYA | Strong | White | 
8 | LLR |  |  | Beads identified as PrPsc-specific binders (film 2 signal from PrPres after PK) [6]: specific for PrPsc
9 | NSTKFDA | Strong | Pink | 
10 | RWD | Strong |  | Bead Color [4, 7]: Bright pink
11 | RWEREDA | Strong | Pink | 
12 | SVYQLDA | Medium | White | 
13 | TGTNRYA | Strong | White | 
14 | VARENIA | Strong | White | 
15 | WEE |  |  | Beads identified as PrPsc-specific binders (film 2 signal from PrPres after PK) [6]: specific for PrPsc
16 | YID | Strong |  | Bead Color [4, 7]: Bright pink

Reference: US20050032138A1 (priority 2003, published 2005)
